Where a name gives a salt, the structure may show the parent alone.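 Dose response: 5 concentrations. Exposure: 48 h. Format: 96-well plates. Endpoint: linear interpolation; highest concentration if not reached. GI50 is the concentration that inhibits growth by half.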 Activity calls are given as the source filed them. Rule as the data show it: active = GI50 up to about 1.1 µM and inactive = higher.
What was measured:
Assay in all cases: inhibition of tumour cell growth, NCI panel, 48 h
SK-MEL-2 = test system: SK-MEL-2
NCI-H23 = test system: NCI-H23
SR = test system: SR
SF-268 = test system: SF-268
K562 = test system: K562
DU-145 = test system: DU-145
IGROV-1 = test system: IGROV-1
HCC 2998 = test system: HCC 2998
EKVX = test system: EKVX
SK-MEL-28 = test system: SK-MEL-28
SF-295 = test system: SF-295
NCI-H460 = test system: NCI-H460
HT-29 = test system: HT-29
HCT-116 = test system: HCT-116
OVCAR-3 = test system: OVCAR-3
UO-31 = test system: UO-31
NCI-H522 = test system: NCI-H522
UACC-257 = test system: UACC-257
T47D = test system: T47D

Measured: GI50

OC(c1ccccc1)c1c(-c2ccccc2)[nH]c(-c2ccccc2)c1C(O)c1ccccc1 (stereo unspecified)
inactive: SK-MEL-2 1.95 µM | NCI-H23 3.52 µM | SR 4.1 µM | SF-268 4.16 µM | K562 2.03 µM | DU-145 5.28 µM | IGROV-1 3.18 µM | HCC 2998 7.24 µM | EKVX 3.21 µM | SK-MEL-28 3.4 µM | SF-295 3.75 µM | NCI-H460 3.06 µM | HT-29 3.99 µM | HCT-116 2.84 µM | OVCAR-3 2.5 µM | UO-31 1.45 µM | NCI-H522 3.27 µM | UACC-257 3.04 µM | T47D 4.86 µM

O=C(/C=C\Nc1ccccc1O)C(F)(F)F
inactive: SK-MEL-2 69 µM | NCI-H23 78.3 µM | SR 36.3 µM | SF-268 > 100 µM | K562 38.5 µM | DU-145 > 100 µM | IGROV-1 78.9 µM | HCC 2998 > 100 µM | EKVX 51.2 µM | SK-MEL-28 > 100 µM | SF-295 50 µM | NCI-H460 67.5 µM | HT-29 > 100 µM | HCT-116 29.5 µM | OVCAR-3 19.5 µM | UO-31 27.7 µM | NCI-H522 31 µM | UACC-257 26.1 µM | T47D 39 µM

O=C(Nc1nc2ncn(CCOC(=O)c3ccccc3)c2c(=O)[nH]1)c1ccccc1
inactive: SK-MEL-2 35.2 µM | NCI-H23 20.1 µM | SR 5.35 µM | SF-268 26.2 µM | K562 3.05 µM | DU-145 31.8 µM | IGROV-1 21 µM | HCC 2998 97.9 µM | EKVX > 84.3 µM | SK-MEL-28 50.7 µM | SF-295 12.9 µM | NCI-H460 8.43 µM | HT-29 3.68 µM | HCT-116 4.43 µM | OVCAR-3 29.5 µM | UO-31 51.9 µM | NCI-H522 2.75 µM | UACC-257 > 95.7 µM | T47D 28.9 µM

CC(C)=CCC[C@@H](C)c1c2ncc[nH]c-2c(C)c(=O)c1O
inactive: SK-MEL-2 18.6 µM | NCI-H23 22.4 µM | SR 51.3 µM | SF-268 15.2 µM | K562 21.7 µM | DU-145 31.6 µM | IGROV-1 26.7 µM | HCC 2998 31.9 µM | EKVX 26.2 µM | SK-MEL-28 48.5 µM | SF-295 16.5 µM | NCI-H460 10.8 µM | HT-29 27.4 µM | HCT-116 37.1 µM | OVCAR-3 27.4 µM | UO-31 6.92 µM | NCI-H522 1.76 µM | UACC-257 31.9 µM | T47D 25.9 µM

O=C(O)CCCCC1CCSS1 (stereo not drawn) [LIPOIC ACID, ALPHA]
inactive: SK-MEL-2 > 100 µM | NCI-H23 > 100 µM | SR > 100 µM | SF-268 > 100 µM | K562 > 100 µM | DU-145 > 100 µM | IGROV-1 > 100 µM | HCC 2998 72.6 µM | EKVX > 100 µM | SK-MEL-28 > 100 µM | SF-295 > 100 µM | NCI-H460 > 100 µM | HT-29 > 100 µM | HCT-116 > 100 µM | OVCAR-3 > 100 µM | UO-31 > 100 µM | NCI-H522 > 100 µM | UACC-257 > 100 µM | T47D > 100 µM

CCOC(=O)C1=C(C)N(C)C(=S)NC1c1cccc(O)c1 (stereo unspecified)
inactive: SK-MEL-2 34.3 µM | NCI-H23 26.4 µM | SR 16.9 µM | SF-268 62.5 µM | K562 19.7 µM | DU-145 57.3 µM | IGROV-1 21.1 µM | HCC 2998 34 µM | EKVX 24.1 µM | SK-MEL-28 49.1 µM | SF-295 25.9 µM | NCI-H460 38.2 µM | HT-29 38.9 µM | HCT-116 25.6 µM | OVCAR-3 36.1 µM | UO-31 81.5 µM | NCI-H522 25.2 µM | UACC-257 43.3 µM | T47D 18.7 µM

C=C(C(=O)OCC)C(=O)OCC
inactive: SK-MEL-2 > 100 µM | NCI-H23 > 100 µM | SR 20.7 µM | SF-268 > 100 µM | K562 > 100 µM | DU-145 > 100 µM | IGROV-1 > 100 µM | HCC 2998 > 100 µM | EKVX > 100 µM | SK-MEL-28 > 100 µM | SF-295 > 100 µM | NCI-H460 > 100 µM | HT-29 > 100 µM | HCT-116 > 100 µM | OVCAR-3 > 100 µM | UO-31 > 100 µM | NCI-H522 > 100 µM | UACC-257 > 100 µM | T47D > 100 µM

COC(=O)c1sc2ncc3c(c2c1N)CC(C)CC3 (stereo unspecified)
inactive: SK-MEL-2 > 100 µM | NCI-H23 > 100 µM | SR > 100 µM | SF-268 > 100 µM | K562 > 100 µM | DU-145 > 100 µM | IGROV-1 > 100 µM | HCC 2998 > 100 µM | EKVX > 100 µM | SK-MEL-28 > 100 µM | SF-295 > 100 µM | NCI-H460 > 100 µM | HT-29 67 µM | HCT-116 > 100 µM | OVCAR-3 > 100 µM | UO-31 > 100 µM | NCI-H522 > 100 µM | UACC-257 > 100 µM | T47D > 100 µM

CN(C)C(=S)SCC(=O)Nc1ccccc1
inactive: SK-MEL-2 > 100 µM | NCI-H23 > 100 µM | SR > 100 µM | SF-268 > 100 µM | K562 > 100 µM | DU-145 > 100 µM | IGROV-1 > 100 µM | HCC 2998 > 100 µM | EKVX > 100 µM | SK-MEL-28 80.4 µM | SF-295 > 100 µM | NCI-H460 > 100 µM | HT-29 > 100 µM | HCT-116 > 100 µM | OVCAR-3 > 100 µM | UO-31 > 100 µM | NCI-H522 57.9 µM | UACC-257 > 100 µM | T47D > 100 µM

C=C(C)[C@@H]1CC[C@]2(C(=O)O)CC[C@]3(C)[C@H](CC[C@@H]4[C@@]5(C)CC[C@H](C(=O)/C=C/c6ccc(O)cc6)C(C)(C)[C@@H]5CC[C@]43C)[C@@H]12
inactive: SK-MEL-2 16.3 µM | NCI-H23 4.22 µM | SR 4.06 µM | SF-268 8.11 µM | K562 3.11 µM | DU-145 5.73 µM | IGROV-1 8.17 µM | HCC 2998 3.21 µM | EKVX 2.47 µM | SK-MEL-28 11.9 µM | SF-295 6.15 µM | NCI-H460 2.73 µM | HT-29 3.38 µM | HCT-116 2.51 µM | OVCAR-3 3.39 µM | UO-31 5.2 µM | NCI-H522 3.41 µM | UACC-257 3.58 µM | T47D 4.58 µM

COc1ccc(C(=O)c2ccc(-n3cc(/C=C/[N+](=O)[O-])c4ccccc43)cc2)cc1
inactive: SK-MEL-2 23.1 µM | NCI-H23 20.1 µM | SR 8.81 µM | SF-268 18 µM | K562 6.53 µM | DU-145 21.5 µM | IGROV-1 10.8 µM | HCC 2998 20.9 µM | EKVX 23.6 µM | SK-MEL-28 28.1 µM | SF-295 47.9 µM | NCI-H460 35.9 µM | HT-29 23.9 µM | HCT-116 10.6 µM | OVCAR-3 13.6 µM | UO-31 19.5 µM | NCI-H522 15.4 µM | UACC-257 10.2 µM | T47D 2.07 µM

C=CCOc1ccc2c(C)cc(=O)oc2c1C
inactive: SK-MEL-2 > 100 µM | NCI-H23 > 100 µM | SR 37.8 µM | SF-268 55.3 µM | K562 52.5 µM | DU-145 > 100 µM | IGROV-1 63 µM | HCC 2998 33 µM | EKVX 27.4 µM | SK-MEL-28 > 100 µM | SF-295 23.3 µM | NCI-H460 53.8 µM | HT-29 59.2 µM | HCT-116 40.5 µM | OVCAR-3 > 100 µM | UO-31 29.5 µM | NCI-H522 29.2 µM | UACC-257 > 100 µM | T47D 47.9 µM

O=C1CN2CCN(CC2)CC(=O)Nc2ccc(cc2)S(=O)(=O)c2ccc(cc2)NC(=O)CN2CCN(CC2)CC(=O)Nc2ccc(cc2)S(=O)(=O)c2ccc(cc2)N1
inactive: SK-MEL-2 > 71.1 µM | NCI-H23 44 µM | SR 4.56 µM | SF-268 19 µM | K562 15.8 µM | DU-145 51.6 µM | IGROV-1 13.8 µM | HCC 2998 > 61.9 µM | EKVX > 100 µM | SK-MEL-28 48.4 µM | SF-295 > 88.7 µM | NCI-H460 19.5 µM | HT-29 15 µM | HCT-116 14.8 µM | OVCAR-3 27.9 µM | UO-31 > 92.5 µM | NCI-H522 4.71 µM | UACC-257 > 100 µM | T47D 67.6 µM

CCN(CC)CCNc1ccc(C)c2sc3ccccc3c(=O)c12 [LUCANTHONE HYDROCHLORIDE]
inactive: SK-MEL-2 3.83 µM | NCI-H23 3.33 µM | SR 2.33 µM | SF-268 5.81 µM | K562 1.97 µM | DU-145 6.67 µM | IGROV-1 5.42 µM | HCC 2998 3.64 µM | EKVX 6.82 µM | SK-MEL-28 1.82 µM | SF-295 2.18 µM | NCI-H460 1.97 µM | HT-29 1.67 µM | HCT-116 1.91 µM | OVCAR-3 6.08 µM | UO-31 1.57 µM | NCI-H522 2.31 µM | UACC-257 1.66 µM | T47D 7.08 µM
